Test results: patent US11912693B2, “Compounds for modulating S1P1 activity and methods of using the same” (TREVENA, INC., priority 2017, dated 2024)

Legend:
[1] = target: T1, human sphingosine-1-phosphate receptor 1 (S1P1) (Homo sapiens (Human), UniProt P21453); assay: Inhibition of cAMP production (HTRF cAMP HiRange), S1P1 CHO-K1 cells; format: cell-based; details: for hS1P1 cAMP pEC50: inhibition of cAMP production, S1P1 CHO-K1 cells; for Emax: CHO-K1, efficacy (SPAN) normalized to fingolimod, read-out: hS1P1 cAMP SPAN
In short: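 CHO-K1 cells stably co-expressing human S1P1 (C-terminal Prolink tag) and EA-β-arrestin2 were grown in AssayComplete Media 6 at 37° C. and 5% CO2, plated, and incubated overnight. Agonist-driven inhibition of intracellular cAMP was read by TR-FRET with the HTRF cAMP HiRange kit on a PheraStar reader. Potency is pEC50, and efficacy (SPAN) is normalized to fingolimod.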
Target sequence in this assay (P21453 whole entry, looked up): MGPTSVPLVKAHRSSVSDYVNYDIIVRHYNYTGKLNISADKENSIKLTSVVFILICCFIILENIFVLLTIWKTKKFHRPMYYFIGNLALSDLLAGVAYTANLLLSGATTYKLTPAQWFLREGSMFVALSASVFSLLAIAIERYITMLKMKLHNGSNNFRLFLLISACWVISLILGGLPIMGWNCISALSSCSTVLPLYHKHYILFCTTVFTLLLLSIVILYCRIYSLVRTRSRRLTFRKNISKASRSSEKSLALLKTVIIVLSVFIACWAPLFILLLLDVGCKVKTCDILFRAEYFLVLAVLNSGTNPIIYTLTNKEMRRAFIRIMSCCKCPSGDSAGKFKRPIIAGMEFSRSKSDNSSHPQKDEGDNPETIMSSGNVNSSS

[2] = target: T1, human sphingosine-1-phosphate receptor 1 (S1P1); assay: β-Arrestin2 recruitment assay (PathHunter), S1P1 CHO-K1 cells; format: cell-based; details: for hS1P1 B-arrestin2 pEC50: β-arrestin2 recruitment, S1P1 CHO-K1 cells; for Emax: CHO-K1, efficacy (SPAN) normalized to fingolimod, read-out: hS1P1 B-arrestin2 SPAN
In short: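 Enzyme-fragment complementation read-out: agonist-driven β-arrestin2 binding to ProLink-tagged human S1P1 in stable CHO-K1 cells restores β-galactosidase, measured 1 h at room temperature after a 60 min 37° C. compound incubation. Potency as pEC50, efficacy relative to fingolimod (SPAN).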
Target sequence in this assay (P21453 whole entry, looked up): as above
Target sequence in this assay (P32121 whole entry partner, looked up): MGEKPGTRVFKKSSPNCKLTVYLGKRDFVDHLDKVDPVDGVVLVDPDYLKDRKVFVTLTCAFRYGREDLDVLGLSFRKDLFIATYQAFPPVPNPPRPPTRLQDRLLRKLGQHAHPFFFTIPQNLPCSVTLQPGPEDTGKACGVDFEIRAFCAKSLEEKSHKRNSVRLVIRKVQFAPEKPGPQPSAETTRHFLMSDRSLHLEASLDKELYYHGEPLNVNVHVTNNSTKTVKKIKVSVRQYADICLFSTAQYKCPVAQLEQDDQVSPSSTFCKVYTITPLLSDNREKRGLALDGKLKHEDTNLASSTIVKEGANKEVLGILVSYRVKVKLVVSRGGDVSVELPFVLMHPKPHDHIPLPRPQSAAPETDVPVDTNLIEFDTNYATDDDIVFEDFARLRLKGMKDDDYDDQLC

[3] = system: paclitaxel induced peripheral neuropathy; assay: Reversal of allodynia induced by paclitaxel in mice (s.c. or p.o., von Frey frequency method); format: in vivo, c57bl/6 mice; details: Mus musculus; for inhibition in vivo at 3 mg/kg: po, 1 h, 3 mg/kg p.o., tested 60 min after dosing, read-out: Screen @ 3 mg/kg po (% MPE); for inhibition in vivo at 1 mg/kg: sc, 0.5 h, 1 mg/kg s.c., tested 30 min after dosing, read-out: Screen @ 1 mg/kg sc (% MPE)
In short: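 Neuropathy was induced in mice by paclitaxel (6 mg/kg i.p., days 1, 3, 5, 7) or oxaliplatin (4 mg/kg i.p., days 1-5), with re-testing about 14 days later. Compounds were given s.c. (tested at 30 min) or p.o. (tested at 60 min; paclitaxel only). A 0.4 g von Frey filament was applied ten times per paw, and % non-response was converted to % MPE.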

hERG channel = hERG channel (Homo sapiens (Human), UniProt Q12809); assay: Automated Qpatch patch-clamp hERG assay
[4] = system: peripheral blood lymphocytes; assay: Peripheral blood lymphocytes (lymphopenia) in c57bl/6 mice, acute and chronic studies; format: in vivo; details: peripheral blood lymphocytes vs vehicle; 6 mg/kg sc, 7 days
Description: Compounds were tested for changes in peripheral blood lymphocytes in c57bl/6 mice. In acute studies, animals (n=5/group) were dosed subcutaneously with test compound at a dose of 3 mg/kg. Animals were sacrificed at specific time points and 500 μl of whole blood was collected in EDTA (K2) Eppendorf tubes. Blood was stored on ice and shipped immediately overnight delivery to Charles River Laboratories for analysis. CRL ran samples through their WBC/differential panel on an Advia 120 instrument. We received peripheral lymphocyte counts (10^3 cells/μl) for each blood sample. Treatment group means were compared to a vehicle treatment group for statistical significance. In chronic studies, animals (n=6-8/group) were dosed subcutaneously with test compound either in a dose response paradigm (highest dose of 3 mg/kg) or in a screening paradigm at 6 mg/kg for seven days. On the seventh day, animals were sacrificed 45 minutes after the final dose. Whole blood was collected and analyzed as described for acute studies. […]

[5] = system: oxaliplatin induced peripheral neuropathy; assay: Reversal of allodynia induced by oxaliplatin in mice (von Frey frequency method); format: in vivo, c57bl/6 mice; details: tested 30 min after dosing
Description: Compounds were tested for efficacy in mouse models of chemotherapy induced peripheral neuropathy. […] For these studies […]/6 mice are habituated to the test environment and baseline measurements of pain sensitivity are assessed. To determine mechanical responses, the threshold for responses to punctate mechanical stimuli (mechanical hyperalgesia) was tested according to the frequency method. In brief, the plantar surface of the animal hindpaw was stimulated with a single von Frey monofilament (0.4 g) for approximately 1-2 seconds. If there was a withdrawal response, it was recorded as a positive response. A response was defined as a lifting or shaking of the paw upon stimulation. This was repeated ten times for each mouse. The final measurement for each mouse is the % non-response to stimulation for the ten trials. The % non-response to stimulation is converted to a % MPE. For paclitaxel induced peripheral neuropathy, a series of injections of PAC (6 mg/kg, i.p.) on days 1, 3, 5 and 7 is used to induce peripheral neuropathy. After approximately 14 days from the initiation of PAC injections, animals are re-assessed for mechanical sensitivity. […] On test day animals are dosed with compounds either subcutaneously or orally and tested for mechanical response by the frequency method either 30 min (s.c.) or 60 min (p.o.) after drug administration. Data is presented as a % MPE. For oxaliplatin induced peripheral neuropathy, a series of injections of OXA (4 mg/kg, i.p.) on days 1-5 is used to induce peripheral neuropathy. After approximately 14 days from the initiation of PAC injections, animals are re-assessed for mechanical sensitivity. […] On test day animals are dosed with compounds subcutaneously and tested for mechanical response by the frequency method 30 min after drug administration. Data is presented as a % MPE. One or more of the compounds show reversal of chemotherapeutic induced peripheral neuropathy.

[6] = system: A2780 human ovarian carcinoma; assay: A2780 human ovarian carcinoma xenograft tumor growth delay in athymic nude mice; details: monotherapy vs control; paclitaxel i.v. qod×5; ozanimod or Compound 103 p.o. qd to end; 60-day study
Description: Female athymic nude mice (Crl:NU(NCr)-Foxnlnu, Charles River Laboratories) were implanted with A2780 human ovarian carcinoma cells to initiate tumor growth.
Each mouse received 1×10^7 cells (0.1 mL cell suspension) subcutaneously in the right flank, and tumors were monitored as their volumes approached the target range of 100 to 150 mm3. Fourteen days later, designated as Day 1 of the study, mice were sorted into six groups of ten each. […] Tumors were measured twice weekly for the study duration.
Starting on Day 1 of the study, six groups (n=10) of female athymic nude mice with established A2780 tumors were treated according to the following plan. Treatments were administered either by intravenous injection (i.v.) or oral gavage (p.o.) and were adjusted to the body weight of the individual animal. Group 1 received Vehicle 1, i.v., once every other day for five doses (qod×5) and Vehicle 2, p.o., once daily to the end of the study (qd to end), and served as the control group for efficacy analysis. Group 2, the paclitaxel monotherapy group, received paclitaxel i.v., qod×5 plus Vehicle 2, p.o., qd to end. Group 3, the ozanimod monotherapy group, received ozanimod p.o., qd to end plus Vehicle 1, i.v., qod×5. Combination Group 4 received ozanimod p.o., qd to end plus paclitaxel i.v., qod×5.
Animals were monitored individually, and each mouse was euthanized when its tumor reached the endpoint volume of 2000 mm3 or on the final day, whichever came first. The time to endpoint (TTE) was calculated for each mouse. Treatment outcome was determined from percent tumor growth delay (% TGD), defined as the percent increase in median TTE for treated versus control mice, with differences in TTE values between groups deemed statistically significant at P<0.05 using logrank survival analysis. Mice were also monitored for complete regression (CR) and partial regression (PR) responses. An animal with a CR at the end of the study was additionally classified as a tumor-free survivor (TFS). Treatment tolerability was assessed by body weight measurements and frequent observation for clinical signs of treatment-related side effects.

[7] = system: Freund's Complete Adjuvant induced inflammation / mechanical allodynia; assay: Tactile allodynia produced by intraplantar Freund's Complete Adjuvant in rats (Randall-Selitto); format: in vivo, rat; details: CFA model, 24 hours after CFA
Description: Animals were acclimated to the vivarium for at least 48 hr prior to behavioral testing. Inflammation was induced with the administration of an intraplantar (subcutaneous injection into the plantar surface of the hind paw, i.pl.) injection of 0.10 ml Freund's Complete Adjuvant (FCA). The experiments were conducted 24 hours after CFA administration. Rats are tested for mechanical allodynia in a Randall-Selitto apparatus. The inflamed paw is put on a pedestal and a pointed force of increasing intensity (0 to 250 grams) is applied to the paw. When the animal struggles to withdraw from the force the test is stopped and the force to induce that struggle is recorded. Data is presented as mean grams of force to withdrawal or a percentage of the maximum possible effect.

hERG channel, sequence (Q12809 whole entry): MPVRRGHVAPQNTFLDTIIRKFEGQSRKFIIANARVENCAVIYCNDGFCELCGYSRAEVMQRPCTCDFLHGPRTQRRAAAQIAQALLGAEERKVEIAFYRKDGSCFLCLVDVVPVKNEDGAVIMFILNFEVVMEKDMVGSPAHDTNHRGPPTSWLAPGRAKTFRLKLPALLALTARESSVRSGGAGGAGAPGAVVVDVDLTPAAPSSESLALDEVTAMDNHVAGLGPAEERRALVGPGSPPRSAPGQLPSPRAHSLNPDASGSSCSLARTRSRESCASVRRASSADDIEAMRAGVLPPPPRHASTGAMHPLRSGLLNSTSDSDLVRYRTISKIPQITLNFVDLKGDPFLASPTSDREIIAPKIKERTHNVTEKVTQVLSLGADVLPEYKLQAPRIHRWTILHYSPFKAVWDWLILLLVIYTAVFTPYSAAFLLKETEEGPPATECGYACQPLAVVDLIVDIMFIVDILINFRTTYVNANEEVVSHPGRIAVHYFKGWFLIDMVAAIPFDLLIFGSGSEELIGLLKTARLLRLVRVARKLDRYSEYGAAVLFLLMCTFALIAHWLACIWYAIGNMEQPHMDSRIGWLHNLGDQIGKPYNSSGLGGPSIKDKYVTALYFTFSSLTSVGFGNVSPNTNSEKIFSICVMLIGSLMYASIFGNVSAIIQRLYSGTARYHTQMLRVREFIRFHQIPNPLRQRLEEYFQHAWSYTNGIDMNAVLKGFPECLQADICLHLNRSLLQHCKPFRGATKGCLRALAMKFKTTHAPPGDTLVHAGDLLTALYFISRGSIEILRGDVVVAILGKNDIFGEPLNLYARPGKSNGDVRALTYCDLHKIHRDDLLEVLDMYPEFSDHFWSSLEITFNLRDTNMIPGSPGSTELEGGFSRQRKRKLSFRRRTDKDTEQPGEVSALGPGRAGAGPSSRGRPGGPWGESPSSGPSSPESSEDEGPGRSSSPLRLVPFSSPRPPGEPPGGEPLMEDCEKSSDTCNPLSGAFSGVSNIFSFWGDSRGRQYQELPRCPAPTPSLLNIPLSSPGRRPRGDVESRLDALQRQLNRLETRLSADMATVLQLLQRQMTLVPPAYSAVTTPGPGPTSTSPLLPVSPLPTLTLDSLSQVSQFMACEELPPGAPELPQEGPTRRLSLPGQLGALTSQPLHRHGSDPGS

`N#Cc1cc(-c2nc(-c3ccc4c(c3)NC(=O)C4)no2)ccc1NCC1CC1` [Compound 497, 2-((cyclopropylmethyl)amino)-5-(3-(2-oxoindolin-6-yl)-1,2,4-oxadiazol-5-yl)benzonitrile] was tested, and the “hS1P1 cAMP pEC50” value [1] was over 6.5, the “hS1P1 B-arrestin2 pEC50” value [2] was over 5 and the inhibition in vivo at 3 mg/kg [3] was under 50%. For the same molecule, the IC50 (hERG channel) was over 10 µM.

`CC(F)(F)CNc1ccc(-c2nnc(-c3ccc4[nH]cnc4c3)o2)cc1C#N` [Compound 520, 5-[5-(1H-1,3-benzodiazol-5-yl)-1,3,4-oxadiazol-2-yl]-2-[(2,2-difluoropropyl)amino]benzonitrile] was tested, and the Emax [1] was over 75%, the “hS1P1 cAMP pEC50” value [1] was over 6.5 and the Emax [2] was over 75%. For the same molecule, the “hS1P1 B-arrestin2 pEC50” value [2] was over 5, the inhibition in vivo at 3 mg/kg [3] was over 50% and the “Lymphopenia: Effect and Doses, mg/kg, sc” value [4] was “no change: 6 mg/kg, 7 days”. The IC50 (hERG channel) was over 10 µM.

`COc1ccc(-c2noc(-c3ccc4c(c3)nnn4C(C)C)n2)c(C)c1` [Compound 55, 5-(1-isopropyl-1H-benzo[d][1,2,3]triazol-5-yl)-3-(4-methoxy-2-methylphenyl)-1,2,4-oxadiazole] was tested, and the “hS1P1 cAMP pEC50” value [1] was over 6.5, the “hS1P1 B-arrestin2 pEC50” value [2] was over 5 and the “Screen @ 3 mg/kg sc (% MPE)” value [5] was over 50 % MPE. The inhibition in vivo at 1 mg/kg [3] was under 50% and the “Lymphopenia: Effect and Doses, mg/kg, sc” value [4] was “no change: 6 mg/kg, 7 days”.

For `CC(C)Oc1ccc(-c2nc(-c3cccc4c3CC[C@@H]4NCCO)no2)cc1C#N` [ozanimod, reference compound], the “percent tumor growth delay (% TGD), monotherapy” value [6] was 31%.

`CC(C)Nc1ccc(-c2nc(-c3ccc4nonc4c3)no2)cc1C#N` [Compound 730, 5-[3-(2,1,3-benzoxadiazol-5-yl)-1,2,4-oxadiazol-5-yl]-2-[(propan-2-yl)amino]benzonitrile] was tested, and the inhibition in vivo at 3 mg/kg [3] was over 50%, the “Lymphopenia: Effect and Doses, mg/kg, sc” value [4] was “no change: 6 mg/kg, 7 days” and the IC50 (hERG channel) was over 10 µM.

`CC(C)Oc1ccc(-c2ncc(-c3ccccn3)cn2)cc1C#N` [Compound 742, 2-isopropoxy-5-(5-(pyridin-2-yl)pyrimidin-2-yl)benzonitrile] was tested, and the IC50 (hERG channel) was over 10 µM.

`CC(C)Nc1ccc(-c2ncc(-c3ccnc(O)c3)cn2)cc1C#N` [Compound 743, 5-(5-(2-hydroxypyridin-4-yl)pyrimidin-2-yl)-2-(isopropylamino) benzonitrile] gave an IC50 (hERG channel) of over 10 µM.

In the case of `CC(C)Oc1ccc(-c2ncc(-c3ccnc(O)c3)cn2)cc1C#N` [Compound 744, 5-(5-(2-hydroxypyridin-4-yl)pyrimidin-2-yl)-2-isopropoxybenzonitrile], the IC50 (hERG channel) is reported as over 10 µM.

For `CC(=O)O[C@H]1C(=O)[C@@]2(C)[C@H]([C@H](OC(=O)c3ccccc3)[C@]3(O)C[C@H](OC(=O)[C@H](O)[C@@H](NC(=O)c4ccccc4)c4ccccc4)C(C)=C1C3(C)C)[C@]1(OC(C)=O)CO[C@@H]1C[C@@H]2O` [Paclitaxel, reference compound], the “percent tumor growth delay (% TGD), monotherapy” value [6] was 128%.

With `Cc1cnccc1-c1nc(-c2ccc3c(ccn3C(C)C)c2)no1` [Compound 142, 3-(1-isopropyl-1H-indol-5-yl)-5-(3-methylpyridin-4-yl)-1,2,4-oxadiazole] the Emax [1] was over 75%, the “hS1P1 cAMP pEC50” value [1] was over 6.5 and the Emax [2] was over 75%. The “hS1P1 B-arrestin2 pEC50” value [2] was over 5, the “Screen @ 3 mg/kg sc (% MPE)” value [5] was over 50 % MPE and the inhibition in vivo at 3 mg/kg [3] was over 50%. The inhibition in vivo at 1 mg/kg [3] was over 50%, the “Active Doses, mg/kg sc (>50% MPE)” value [7] was at least 0.1 mg/kg and the “Lymphopenia: Effect and Doses, mg/kg, sc” value [4] was “no change: 6 mg/kg, 7 days”.

With `Cc1ccsc1-c1noc(-c2ccc3c(c2)nnn3C(C)C)n1` [Compound 169, 5-[3-(3-methylthiophen-2-yl)-1,2,4-oxadiazol-5-yl]-1-(propan-2-yl)-1H-1,2,3-benzotriazole] the “hS1P1 cAMP pEC50” value [1] was over 6.5, the “hS1P1 B-arrestin2 pEC50” value [2] was over 5 and the “Screen @ 3 mg/kg sc (% MPE)” value [5] was over 50 % MPE. The inhibition in vivo at 1 mg/kg [3] was over 50% and the “Lymphopenia: Effect and Doses, mg/kg, sc” value [4] was “no change: 6 mg/kg, 7 days”.
